Assay results: US20210161999A1, “COMPOSITIONS AND METHODS RELATED TO OVERCOMING INNATE IMMUNE BARRIERS TO CANCER IMMUNOTHERAPY” (Health Research, Inc., priority 2018, published 2021)
“Also recorded” adds a separate entry of the source.

Tests used:
Type in all cases: cell-based, human
[1] = tested on: iC3b/C3b deposition on PMN; test: Deposition of iC3b/C3b on PMN after 1.5 h coculture (clone 3E7/C3b); settings: PMN and T cells cocultured in treated ASC for 1.5 h (n=3 ASC)
Description: FIG. 16. Complement activation in ASC results in C3b/iC3b deposition on PMN and mediates the PMN suppressor phenotype via the AP and classical pathways. A) Activation of complement in ASC principally occurs via the AP and classical pathways, though inter-patient variability was observed. ASC were assessed for complement activity by WIESLAB ELISA kits that detect formation of C5b-9. Percent (%) activity is in relation to the provided positive control (n=38 ASC, **, p=0.0015; ****, p<0.0001). […] C) PMN and T cells were cocultured in media, ASC, Cp40-ASC, or SCR-ASC for 1.5 h. Deposition of iC3b/C3b (clone 3E7/C3b recognizes both C3b and iC3b) on PMN was increased with ASC versus media, while iC3b/C3b deposition on T cells was unaffected by ASC (not shown). iC3b/C3b binding to PMN was decreased by Cp40-ASC, and unaffected by SCR-ASC (n=3 ASC).

[2] = tested on: PMN suppressor phenotype (suppression of anti-CD3/CD28-stimulated T cell proliferation); test: Coculture of PMN with ascites supernatants and anti-CD3/CD28-stimulated T cells; T cell proliferation by [3H] thymidine incorporation
Description: Freshly isolated T cells (1e5) were stimulated with anti-CD3/CD28 Dynabeads (2.5 μl; Thermo Fisher Scientific) and cocultured with autologous PMN (1:1) and ascites supernatants (50% final well volume) in an incubator at 37° C., 5% CO2. After 72 h, [^3H] thymidine (1 μCi per well) was added and allowed to incorporate for 16-18 h. Cells were harvested onto a Filtermat and counted on a Beta counter. Results are expressed as net cpm [calculated by subtracting the average cpm of unstimulated T cells from the average cpm of stimulated T cells].
Where indicated, T cells, PMN, and ascites supernatants underwent various pretreatments. Where indicated, T cells were pretreated for lh with neutralizing antibody against ICAM-I (1-10 μg), IgG1 isotype (1-10 μg), or media (RPMI 1640, 5-10% heat-inactivated FBS, HEPES, sodium pyruvate, non-essential amino acids, and penicillin-streptomycin).
Where indicated, PMN were pretreated for lh with neutralizing antibody against CD11b (1-10 μg), TGF-beta receptor 1 (1-10 μg) or IgG1 isotype (1-10 μg); thapsigargin (THG, 0.5-2 μM), diphenyleneiodonium (DPI, 1-25 μM), N-Formylmethionine-leucyl-phenylalanine (fMLF, 1-100 nM), brefeldin-A (1-10 μg/mL), ER export inhibitor 1 (Exol, 20-75 μM), CI-amidine (10-20 μM), SNARE decoys: TAT-SNAP23 (0.6-0.9 μg/mL), TAT-SYN4 (0.6-0.9 μg/mL), TAT-GST (0.6-0.9 μg/mL) (produced as described in the laboratory of Dr. Kenneth McLeish), puromycin and actinomycin-D (1-5 μg/mL), or with media.
Where indicated, ascites supernatants were pretreated with heat (56° C., lh) to denature heat-labile constituents or proteinase-K (100 μM, 37° C., 12 h) to degrade proteins. Two formulations of compstatin, a peptide C3 inhibitor, were used: CS (250 μM, 30° C., 2 h, Tocris) and Cp40 (1.25-20 μM, 30° C., 2 h), as well as a scramble peptide. In separate studies, ascites supernatants were ultra-centrifuged (100,000g, 4° C., 1.5 h) to separate the membrane-rich (MR-ASC) and membrane-depleted (MD-ASC) fractions. In others, ascites supernatants were pretreated for lh with neutralizing antibody against C5 (0.5-1.0 μg, A217; Quidel, San Diego, Calif.) or C7 (0.5-1.0 μg, A221; Quidel) or IgG1 isotype (0.5-1.0 μg), or with OmCI (0.6-1.2 μM), a peptide C5 inhibitor derived from the saliva of Ornithodoros moubata (35, 36).

TALs = test: Coculture of TALs with autologous ascites and healthy donor PMN; anti-CD3/CD28-stimulated proliferation; settings: Cp40-ASC; TALs from n=3 patients, PMN from healthy donors
Source text: FIG. 15. Inhibition of complement C3 activation abrogates the PMN suppressor phenotype induced by malignant effusions. […] The abrogation effect of Cp40 was highly robust, and was observed consistently in at least 10 separate experiments and 15 different ascites samples. […] C) Cryopreserved or fresh TALs (from n=3 patients) were cocultured with autologous ASC and/or PMN from healthy donors. […] Statistics are by ANOVA as compared to +CD3/CD28+ ASC+PMN (*, p<0.05; **, p<0.01; ***, p<0.001).
Inhibition of C3 abrogates neutrophil suppressor phenotype on EOC TALs In patients with metastatic EOC, tumor antigen-specific CD8^+ T cells have impaired effector function and increased co-expression of PD-1 and LAG-3 compared to circulating lymphocytes, and effector function was enhanced with blockade of PD-1 and LAG-3. We confirmed high expression of PD-1 and LAG-3 on TALs from the ascites of patients with newly diagnosed EOC (not shown). We next cocultured cryopreserved or fresh TALs from 3 patients with autologous ascites and/or neutrophils from healthy donors.

`CC[C@H](C)[C@H](NC(=O)[C@H](N)Cc1ccc(O)cc1)C(=O)N[C@H]1CSSC[C@@H](C(=O)N(C)[C@H](C(N)=O)[C@@H](C)CC)NC(=O)[C@H](CCCNC(=N)N)NC(=O)[C@H](Cc2c[nH]cn2)NC(=O)[C@H](C)NC(=O)CN(C)C(=O)[C@H](Cc2c[nH]c3ccccc23)NC(=O)[C@H](CC(=O)O)NC(=O)[C@H](CCC(N)=O)NC(=O)[C@H](Cc2cn(C)c3ccccc23)NC(=O)[C@H](C(C)C)NC1=O` [Cp40] was tested, and the “iC3b/C3b binding to PMN” value [1] was “reduced; also recorded: decreased”, the “effect on PMN suppressor phenotype” value ([2]; added to ASC 2 h prior to coculture with PMN and T cells, CS 250 μM, Cp40 20 μM, scramble peptide 20 μM) was “completely abrogated the PMN suppressor phenotype; also recorded: fully abrogated the PMN suppressor phenotype; also recorded: completely abrogated the neutrophil suppressor phenotype” and the “Cp40 concentration sufficient to abrogate the PMN suppressor phenotype” value ([2]; concentration-titration study, FIG. 15B) was 2.5-20 ∥M. The “Cp40 concentration sufficient to fully abrogate the PMN suppressor phenotype” value ([2]; titration study, ASC pretreated (n=3)) was 5 µM and the “effect on suppression of stimulated TAL proliferation” value (TALs) was “fully abrogated”.
